From patent US20030032834A1, “Aminoalcohol derivatives” (priority 2000, published 2003)
Where a name gives a salt, the structure may show the parent alone.

Tested on: increase in intravesical pressure induced by carbachol in anesthetized dog
Assay: Effect on the increase in intravesical pressure induced by carbachol in anesthetized dog
Assay type: in vivo
Conditions: 0.01 mg/kg injected intravenously 5 minutes before carbachol (1.8 μg/kg); anesthetized female Beagle dogs; N = 5; Before 6.2 ± 1.1; *P < 0.01 vs Before (ANOVA)
Procedure: Effect on the increase in intravesical pressure induced by carbachol in anesthetized dog
Female Beagle dogs weighing 8.0-15.0 kg were fasted for 24 hours and maintained under halothane anesthesia. A 12F Foley catheter was lubricated with water soluble jelly, inserted into the urethral orifice and advanced approximately 10 cm until the balloon tip was placed well inside the bladder. The balloon was then inflated with 5 ml of room air and catheter slowly withdrawn just part the first resistance that is felt at the bladder neck. Urine was completely drained out through the catheter, and 30 ml of biological saline was infused. The catheter was connected to pressure transducer, and intravesical pressure was continuously recorded. The test compound was injected intravenously at 5 minutes before the administration of carbachol (1.8 μg/kg).

For `COC(=O)Nc1ccc(C(CCNC[C@H](O)COc2ccccc2)c2ccc(NC(=O)OC)cc2)cc1` [Test Compound (1), (2S)-1-Phenoxy-3-[3,3-bis[4-(methoxycarbonylamino)-phenyl]propylamino]-2-propanol sulfate (2:1) (crystal Form A)], the “Increase in intravesical pressure (mmHg)” value was 4.9 ± 0.9* mmHg.
